Consider 18 compounds from BindingDB's records for doi:10.1111/cbdd.12546 (Zhejiang University of Technology, 2015).

pIC50: −log10 of the molar value.

This assay concerns the target Glycogen synthase kinase-3 beta (Homo sapiens, UniProt P49841). The experiment in a line: Kinase Assay.

Glycogen synthase kinase-3 beta, sequence (P49841 whole entry): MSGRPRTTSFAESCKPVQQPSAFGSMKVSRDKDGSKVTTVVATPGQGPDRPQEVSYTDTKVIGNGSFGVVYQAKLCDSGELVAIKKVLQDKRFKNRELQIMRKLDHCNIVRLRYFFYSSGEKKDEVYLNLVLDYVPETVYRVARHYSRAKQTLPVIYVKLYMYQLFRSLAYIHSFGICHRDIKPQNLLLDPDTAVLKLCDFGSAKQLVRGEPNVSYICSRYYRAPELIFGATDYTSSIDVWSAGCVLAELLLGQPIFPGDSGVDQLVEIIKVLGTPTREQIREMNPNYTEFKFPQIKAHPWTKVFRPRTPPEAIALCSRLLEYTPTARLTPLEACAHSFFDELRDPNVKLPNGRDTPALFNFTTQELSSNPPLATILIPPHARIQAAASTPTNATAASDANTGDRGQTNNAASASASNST

Consider `Cn1cc(C2=C(c3coc4ncccc34)C(=O)NC2=O)c2cc(Br)ccc21` [3-(5-Bromo-1-methyl-1H-indol-3-yl)-4-(furo[2,3-b]pyridin-3-yl)-1H-pyrrole-2,5-dione (5h)], for which the pIC50 (in general, the IC50 on a negative log10 scale, so that one unit is a factor of ten) is 7.15.

In the case of `COc1ccc2c(c1)c(C1=C(c3coc4ncccc34)C(=O)NC1=O)cn2C` [3-(Furo[2,3-b]pyridin-3-yl)-4-(5-methoxy-1-methyl-1H-indol-3-yl)-1H-pyrrole-2,5-dione (5j)], the negative logarithm of the IC50 (pIC50) was 5.88.

`Cn1cc(C2=C(c3coc4ncccc34)C(=O)NC2=O)c2ccc(Cl)cc21` [3-(6-Chloro-1-methyl-1H-indol-3-yl)-4-(furo[2,3-b]pyridin-3-yl)-1H-pyrrole-2,5-dione (5g)] showed a pIC50 of 5.74.

For the compound `O=C1NC(=O)C(c2cn(CCCn3ccnc3)c3ccc(Br)cc23)=C1c1coc2ncccc12` [3-(1-(3-(1H-Imidazol-1-yl)propyl)-5-bromo-1H-indol-3-yl)-4-(furo[2,3-b]pyridin-3-yl)-1H-pyrrole-2,5-dione (5o)], the pIC50 was 6.72.

Compound `CCCCn1cc(C2=C(c3coc4ncccc34)C(=O)NC2=O)c2ccccc21` [3-(1-Butyl-1H-indol-3-yl)-4-(furo[2,3-b]pyridin-3-yl)-1H-pyrrole-2,5-dione (5l)] gave a pIC50 of 6.24.

As for `Cn1cc(C2=C(c3coc4ncccc34)C(=O)NC2=O)c2ccc(Br)cc21` [3-(6-Bromo-1-methyl-1H-indol-3-yl)-4-(furo[2,3-b]pyridin-3-yl)-1H-pyrrole-2,5-dione (5i)], the pIC50 is 5.71.

In the case of `C=CCn1cc(C2=C(c3coc4ncccc34)C(=O)NC2=O)c2ccccc21` [3-(1-Allyl-1H-indol-3-yl)-4-(furo[2,3-b]pyridin-3-yl)-1H-pyrrole-2,5-dione (5k)], the pIC50 was 6.28.

Compound `Cc1cccc2c(C3=C(c4coc5ncccc45)C(=O)NC3=O)cn(C)c12` [3-(1,7-dimethyl-1H-indol-3-yl)-4-(furo[2,3-b]pyridin-3-yl)-1H-pyrrole-2,5-dione (5c)] showed a pIC50 of 6.54.

`Cn1cc(C2=C(c3coc4ncccc34)C(=O)NC2=O)c2ccccc21` [3-(Furo[2,3-b]pyridin-3-yl)-4-(1-methyl-1H-indol-3-yl)-1H-pyrrole-2,5-dione (5b)] gave a negative-log IC50 (pIC50) of 6.55.

Compound `Cn1cc(C2=C(c3coc4ncccc34)C(=O)NC2=O)c2cc(Cl)ccc21` [3-(5-Chloro-1-methyl-1H-indol-3-yl)-4-(furo[2,3-b]pyridin-3-yl)-1H-pyrrole-2,5-dione (5f)] showed a pIC50 of 6.77. Against the preceding compound, the pIC50 is 0.22 log units higher.

For `Cn1cc(C2=C(c3coc4ncccc34)C(=O)NC2=O)c2ccc(F)cc21` [3-(6-Fluoro-1-methyl-1H-indol-3-yl)-4-(furo[2,3-b]pyridin-3-yl)-1H-pyrrole-2,5-dione (5e)], the pIC50 was 6.25.

Compound `O=C1NC(=O)C(c2cn(CCCO)c3ccccc23)=C1c1coc2ncccc12` [3-(Furo[2,3-b]pyridin-3-yl)-4-(1-(3-hydroxypropyl)-1H-indol-3-yl)-1H-pyrrole-2,5-dione (5q)] showed a pIC50 of 6.51.

Consider `O=C1NC(=O)C(c2cn(CCCn3ccnc3)c3ccc(Cl)cc23)=C1c1coc2ncccc12` [3-(1-(3-(1H-Imidazol-1-yl)propyl)-5-chloro-1H-indol-3-yl)-4-(furo[2,3-b]pyridin-3-yl)-1H-pyrrole-2,5-dione (5p)], for which the pIC50 was 6.62.

`O=C1NC(=O)C(c2coc3ncccc23)=C1c1c[nH]c2ccccc12` [3-(Furo[2,3-b]pyridin-3-yl)-4-(1H-indol-3-yl)-1H-pyrrole-2,5-dione (5a)]: the pIC50 is 5.75.

`Cn1cc(C2=C(c3coc4ncccc34)C(=O)NC2=O)c2cc(F)ccc21` [3-(5-Fluoro-1-methyl-1H-indol-3-yl)-4-(furo[2,3-b]pyridin-3-yl)-1H-pyrrole-2,5-dione (5d)] gave a negative logarithm of the IC50 (pIC50) of 6.41.

`O=C1NC(=O)C(c2cn(CCCn3ccnc3)c3ccccc23)=C1c1coc2ncccc12` [3-(1-(3-(1H-Imidazol-1-yl)propyl)-1H-indol-3-yl)-4-(furo[2,3-b]pyridin-3-yl)-1H-pyrrole-2,5-dione (5n)] gave a pIC50 of 6.68.

Compound `CC(C)n1cc(C2=C(c3coc4ncccc34)C(=O)NC2=O)c2ccccc21` [3-(Furo[2,3-b]pyridin-3-yl)-4-(1-isopropyl-1H-indol-3-yl)-1H-pyrrole-2,5-dione (5m)] showed a negative logarithm of the IC50 (pIC50) of 6.72.

`O=C1NC(=O)C(c2cn(CCCN3CCOCC3)c3ccccc23)=C1c1coc2ncccc12` [3-(Furo[2,3-b]pyridin-3-yl)-4-(1-(3-morpholinopropyl)-1H-indol-3-yl)-1H-pyrrole-2,5-dione (5r)] showed a pIC50 of 6.16.
